Measurements from the supplement of paper PMC4862054.

Key:
Conditions in all cases: incubation time: 72 h
[1] = tested on: HCC1599; experiment: normalised response (% of control), CellTiter-Glo; higher = more viable cells (100 = DMSO, 0 = benzethonium chloride kill control)
Method in brief: (§1)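 Plates were normalised with 0.1 % DMSO as 100 and a positive kill control as 0. Breast cancer cell lines in 20 µl suspension had been seeded into 384-well plates with compound at 5 concentrations in 10-fold steps over a compound-specific 10,000-fold range, incubated 72 h, and read for CellTox Green fluorescence (485/520 nm) followed by CellTiter-Glo luminescence. Each value is the normalised signal at a single concentration.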

[2] = tested on: MFM-223; experiment: as above
Method in brief: as §1

[3] = tested on: HCC1937; experiment: as above
Method in brief: as §1

[4] = tested on: MCF-10A; experiment: as above
Method in brief: as §1

[5] = tested on: MDA-MB-453; experiment: as above
Method in brief: as §1

[6] = tested on: HCC1143; experiment: as above
Method in brief: as §1

[7] = tested on: MDA-MB-436; experiment: as above
Method in brief: as §1

[8] = tested on: MDA-MB-231; experiment: as above
Method in brief: as §1

[9] = tested on: Hs578T; experiment: as above
Method in brief: as §1

[10] = tested on: SK-BR-3; experiment: as above
Method in brief: as §1

[11] = tested on: BT-549; experiment: as above
Method in brief: as §1

[12] = tested on: DU-4475; experiment: as above
Method in brief: as §1

[13] = tested on: CAL-120; experiment: as above
Method in brief: as §1

[14] = tested on: CAL-85-1; experiment: as above
Method in brief: as §1

[15] = tested on: MDA-MB-468; experiment: as above
Method in brief: as §1

[16] = tested on: CAL-148; experiment: as above
Method in brief: as §1

[17] = tested on: HDQ-P1; experiment: as above
Method in brief: as §1

[18] = tested on: CAL-51; experiment: as above
Method in brief: as §1

[19] = tested on: BT-474; experiment: as above
Method in brief: as §1

[20] = tested on: HCC1599; experiment: normalised response (% of control), CellTox Green; higher = less cell death (100 = DMSO, 0 = benzethonium chloride kill control)
Method in brief: as §1

[21] = tested on: MFM-223; experiment: as above
Method in brief: as §1

[22] = tested on: HCC1937; experiment: as above
Method in brief: as §1

[23] = tested on: MCF-10A; experiment: as above
Method in brief: as §1

[24] = tested on: MDA-MB-453; experiment: as above
Method in brief: as §1

[25] = tested on: HCC1143; experiment: as above
Method in brief: as §1

[26] = tested on: MDA-MB-436; experiment: as above
Method in brief: as §1

[27] = tested on: MDA-MB-231; experiment: as above
Method in brief: as §1

[28] = tested on: Hs578T; experiment: as above
Method in brief: as §1

[29] = tested on: BT-549; experiment: as above
Method in brief: as §1

[30] = tested on: DU-4475; experiment: as above
Method in brief: as §1

[31] = tested on: CAL-120; experiment: as above
Method in brief: as §1

[32] = tested on: CAL-85-1; experiment: as above
Method in brief: as §1

[33] = tested on: MDA-MB-468; experiment: as above
Method in brief: as §1

[34] = tested on: CAL-148; experiment: as above
Method in brief: as §1

[35] = tested on: HDQ-P1; experiment: as above
Method in brief: as §1

[36] = tested on: CAL-51; experiment: as above
Method in brief: as §1

[37] = tested on: BT-474; experiment: as above
Method in brief: as §1

| SMILES | normalised response [1] | normalised response [2] | normalised response [3] | normalised response [4] | normalised response [5] | normalised response [6] | normalised response [7] | normalised response [8] | normalised response [9] | normalised response [10] | normalised response [11] | normalised response [12] | normalised response [13] | normalised response [14] | normalised response [15] | normalised response [16] | normalised response [17] | normalised response [18] | normalised response [19] | normalised response [20] | normalised response [21] | normalised response [22] | normalised response [23] | normalised response [24] | normalised response [25] | normalised response [26] | normalised response [27] | normalised response [28] | normalised response [29] | normalised response [30] | normalised response [31] | normalised response [32] | normalised response [33] | normalised response [34] | normalised response [35] | normalised response [36] | normalised response [37] |
| --- | --- | --- | --- | --- | --- | --- | --- | --- | --- | --- | --- | --- | --- | --- | --- | --- | --- | --- | --- | --- | --- | --- | --- | --- | --- | --- | --- | --- | --- | --- | --- | --- | --- | --- | --- | --- | --- |
| Oc1ncc(N(CCCl)CCCl)c(O)n1 [Uracil mustard] (1000 nM) | 108% | 98.2% | 93.8% | 118% | 104% | 101% | 106% | 96.5% | 99% | 100% | 100% | 95.4% | 106% | 99.3% | 104% | 93.9% | 105% | 113% | 104% | 96% | 102% | 102% | 102% | 112% | 117% | 98.7% | 107% | 107% | 103% | 105% | 106% | 115% | 120% | 103% | 113% | 104% | 101% |
| CC1=C(/C=C/C(C)=C/C=C/C(C)=C/C(=O)O)C(C)(C)CCC1 [Tretinoin] (1000 nM) | 99.3% | 93.5% | 97.7% | 82% | 97.6% | 96.8% | 95.6% | 96.8% | 90.7% | 70.7% | 101% | 102% | 101% | 92.2% | 84.6% | 78.1% | 102% | 111% | 97% | 101% | 97.5% | 93.8% | 80.4% | 114% | 115% | 96.4% | 96.5% | 59.5% | 101% | 105% | 107% | 99.5% | 109% | 98.5% | 91.2% | 99% | 99.4% |
| O=C(Cc1ccc(-c2ccc(OCCN3CCOCC3)cc2)cn1)NCc1ccccc1 [KX2-391] (1000 nM) | 14.8% | 44.9% | 72.8% | 75.2% | 72% | 61.5% | 25.2% | 46.6% | 19.7% | 14.9% | 43.6% | 45.6% | 59.4% | 45.3% | 33.4% | 41.4% | 70.8% | 19.3% | 52.5% | 71.9% | 44.2% | 115% | 38.9% | 49.9% | 113% | 83.1% | -59.4% | 38.4% | 76.7% | 101% | 90.4% | 68.1% | 23.4% | 74.2% | 99.8% | 30.9% | 80.8% |
| Nc1nc2[nH]cc(CCc3ccc(C(=O)N[C@@H](CCC(=O)O)C(=O)O)cc3)c2c(=O)[nH]1 [Pemetrexed] (1000 nM) | 67.4% | 91.5% | 70.3% | 97.6% | 92.2% | 93.3% | 80.7% | 65.6% | 17.1% | 68.2% | 97.1% | 89.5% | 88.1% | 54.5% | 90% | 95.7% | 83.2% | 90.6% | 54.4% | 92% | 103% | 112% | 103% | 106% | 115% | 108% | 88% | 101% | 82.9% | 98.2% | 100% | 105% | 122% | 89.9% | 110% | 98.2% | 99.5% |
| CCCS(=O)(=O)Nc1ccc(F)c(C(=O)c2c[nH]c3ncc(-c4ccc(Cl)cc4)cc23)c1F [Vemurafenib] (1000 nM) | 104% | 86.4% | 97.3% | 101% | 90.7% | 95.6% | 94.2% | 94.3% | 103% | 79% | 93.1% | 35% | 90% | 92.3% | 86.9% | 86.4% | 94.8% | 88.6% | 90.8% | 90.8% | 98% | 108% | 88.2% | 104% | 91.8% | 65.4% | 97% | 100% | 116% | 78.9% | 99.7% | 100% | 127% | 101% | 73.9% | 82.6% | 98% |
| O=C(/C=C/c1cccnc1)NCCCCC1CCN(C(=O)c2ccccc2)CC1 [Daporinad] (100 nM) | 0.54% | 4.38% | 21.3% | 11.1% | 14.3% | 14.3% | 54% | 25.8% | 8.08% | 107% | 100% | 4.65% | 17% | 16% | 0.85% | 69% | 19.1% | 102% | 28.7% | 78.1% | 70.9% | 27.6% | 98.1% | 104% | 104% | 103% | 112% | 20% | 105% | 98.8% | 91.2% | 101% | 125% | 95% | 103% | 105% | 98.6% |
| COc1cc([C@@H]2c3cc4c(cc3[C@@H](O[C@@H]3O[C@@H]5CO[C@@H](c6cccs6)O[C@H]5[C@H](O)[C@H]3O)[C@H]3COC(=O)[C@H]23)OCO4)cc(OC)c1O [Teniposide] (1000 nM) | 19.6% | 82.4% | 72.4% | 82.8% | 160% | 47.8% | 36.6% | 66% | 76.3% | 19.1% | 36.5% | 17.3% | 72.4% | 55.3% | 41.9% | 33.3% | 84.1% | 47.8% | 47.6% | 75.5% | 69.6% | 92.2% | 75.1% | 111% | -28.9% | 90.5% | 61.2% | 98.2% | 78.4% | 75% | 88.1% | 91% | 94.5% | 21.2% | 102% | 51.4% | 99.1% |
